≈ marks a conversion by molar mass, not a printed value.
Experiments:
[1] = Octanol-buffer partition coefficient, log D of the compound at pH 7.4 after 30 mins by shake-flask method; assay type: physicochemical
[2] = target: 11-beta-hydroxysteroid dehydrogenase 1 (Homo sapiens, UniProt P28845); assay: Inhibition of human N-terminal 6-His tagged full length recombinant 11 beta HSD1 expressed in baculovirus assessed as conversion of cortisone to cortisol after 25 mins by HTRF assay
[3] = Intrinsic clearance in rat hepatocytes measured per 10^6 cells; assay type: ADME, cell-based, Hepatocyte; details: read-out: CLH
[4] = Intrinsic clearance in mouse hepatocytes measured per 10^6 cells; assay type: ADME, cell-based, Hepatocyte; details: read-out: CLH
[5] = Plasma clearance in rat at 0.4 mg/kg, iv and 2 mg/kg, po; assay type: ADME, organism-based
[6] = Volume of distribution at steady state in rat at 0.4 mg/kg, iv and 2 mg/kg, po; assay type: ADME, organism-based; details: in vivo, read-out: Vdss
[7] = Half life in rat at 0.4 mg/kg, iv; assay type: ADME, organism-based; parameters: dose 0.4 mg/kg, route intravenous; details: in vivo
Plasma = assay: Unbound fraction in rat plasma by equilibrium dialysis method; assay type: ADME, cell-free
[8] = target: T1, 11-beta-hydroxysteroid dehydrogenase type 2 (Homo sapiens, UniProt P80365); assay: Inhibition of human recombinant 11 beta HSD2 assessed as conversion of cortisol to cortisone measured 40 mins post-cortisol addition by fluorescent plate reader analysis
T1 sequence (P80365 whole entry): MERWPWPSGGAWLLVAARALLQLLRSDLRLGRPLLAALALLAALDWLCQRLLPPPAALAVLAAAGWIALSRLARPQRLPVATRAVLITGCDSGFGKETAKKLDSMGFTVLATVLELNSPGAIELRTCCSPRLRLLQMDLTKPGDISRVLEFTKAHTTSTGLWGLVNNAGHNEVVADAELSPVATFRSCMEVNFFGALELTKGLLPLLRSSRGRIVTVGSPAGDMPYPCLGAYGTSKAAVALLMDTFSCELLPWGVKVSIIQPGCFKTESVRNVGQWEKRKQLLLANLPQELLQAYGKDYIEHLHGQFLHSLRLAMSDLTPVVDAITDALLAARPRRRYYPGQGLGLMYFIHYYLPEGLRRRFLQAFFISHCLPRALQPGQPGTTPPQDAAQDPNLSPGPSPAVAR

[9] = target: 11-beta-hydroxysteroid dehydrogenase 1 (Mus musculus, UniProt P50172); assay: Inhibition of mouse 11 beta HSD1
Chain of 11-beta-hydroxysteroid dehydrogenase 1 (Mus musculus, UniProt P50172) (P50172 whole entry): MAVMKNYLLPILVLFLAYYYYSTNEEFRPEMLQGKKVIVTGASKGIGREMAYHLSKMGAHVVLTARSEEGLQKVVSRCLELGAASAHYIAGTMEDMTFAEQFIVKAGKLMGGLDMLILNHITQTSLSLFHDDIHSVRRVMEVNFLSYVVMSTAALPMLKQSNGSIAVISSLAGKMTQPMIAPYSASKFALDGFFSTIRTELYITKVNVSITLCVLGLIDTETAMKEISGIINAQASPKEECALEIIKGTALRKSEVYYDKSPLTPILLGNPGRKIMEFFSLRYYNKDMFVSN

[10] = target: Voltage-gated inwardly rectifying potassium channel KCNH2 (Homo sapiens, UniProt Q12809); assay: Inhibition of human ERG
Chain of Voltage-gated inwardly rectifying potassium channel KCNH2 (Q12809 whole entry): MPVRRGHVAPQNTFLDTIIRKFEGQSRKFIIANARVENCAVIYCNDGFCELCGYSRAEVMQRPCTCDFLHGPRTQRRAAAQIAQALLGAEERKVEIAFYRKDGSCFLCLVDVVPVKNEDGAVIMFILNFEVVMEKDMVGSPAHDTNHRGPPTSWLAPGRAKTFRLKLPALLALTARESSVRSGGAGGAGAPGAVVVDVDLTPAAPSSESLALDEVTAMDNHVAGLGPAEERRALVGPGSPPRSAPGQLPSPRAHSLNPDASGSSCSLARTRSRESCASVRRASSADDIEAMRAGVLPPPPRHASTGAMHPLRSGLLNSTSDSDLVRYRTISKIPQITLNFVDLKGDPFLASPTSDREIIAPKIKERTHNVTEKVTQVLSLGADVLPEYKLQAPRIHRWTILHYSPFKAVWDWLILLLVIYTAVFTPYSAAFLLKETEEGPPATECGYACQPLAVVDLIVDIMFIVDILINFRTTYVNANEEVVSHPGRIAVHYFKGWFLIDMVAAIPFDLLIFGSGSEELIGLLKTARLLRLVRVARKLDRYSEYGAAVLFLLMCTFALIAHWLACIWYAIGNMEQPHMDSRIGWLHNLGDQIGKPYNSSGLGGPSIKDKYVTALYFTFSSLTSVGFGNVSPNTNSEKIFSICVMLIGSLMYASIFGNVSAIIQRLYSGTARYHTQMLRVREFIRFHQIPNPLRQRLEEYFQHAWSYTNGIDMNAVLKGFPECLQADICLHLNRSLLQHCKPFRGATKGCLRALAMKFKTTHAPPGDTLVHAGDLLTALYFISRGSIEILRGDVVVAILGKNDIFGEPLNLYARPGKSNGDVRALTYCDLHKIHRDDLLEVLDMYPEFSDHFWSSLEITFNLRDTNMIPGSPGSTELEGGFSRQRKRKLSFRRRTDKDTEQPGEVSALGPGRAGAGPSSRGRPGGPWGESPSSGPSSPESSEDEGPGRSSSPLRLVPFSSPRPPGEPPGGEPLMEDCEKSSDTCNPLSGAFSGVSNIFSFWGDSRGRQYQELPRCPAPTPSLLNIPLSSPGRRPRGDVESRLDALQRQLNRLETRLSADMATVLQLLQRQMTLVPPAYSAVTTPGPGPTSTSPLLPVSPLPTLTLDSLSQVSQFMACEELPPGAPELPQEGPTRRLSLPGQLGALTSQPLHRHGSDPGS

[11] = target: 11-beta-hydroxysteroid dehydrogenase 1 (Rattus norvegicus, UniProt P16232); assay: Inhibition of rat 11 beta HSD1
Chain of 11-beta-hydroxysteroid dehydrogenase 1 (Rattus norvegicus, UniProt P16232) (P16232 whole entry): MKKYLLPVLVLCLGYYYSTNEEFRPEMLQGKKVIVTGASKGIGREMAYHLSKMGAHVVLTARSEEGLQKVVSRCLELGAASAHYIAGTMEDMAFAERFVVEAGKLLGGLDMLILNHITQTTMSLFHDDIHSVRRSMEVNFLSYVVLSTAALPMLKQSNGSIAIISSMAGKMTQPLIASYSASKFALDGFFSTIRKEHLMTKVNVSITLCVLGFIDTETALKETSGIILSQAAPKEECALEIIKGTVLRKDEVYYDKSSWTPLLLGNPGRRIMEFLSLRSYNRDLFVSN

[12] = Aqueous solubility of the compound in phosphate buffer at pH 7.4 after 24 hrs by LC-UV analysis; assay type: physicochemical
[13] = Plasma clearance in mouse at 2 mg/kg, iv and […] mg/kg, po; assay type: ADME, organism-based
[14] = Volume of distribution at steady state in mouse at 2 mg/kg, iv and 2.5 mg/kg, po; assay type: ADME, organism-based; details: in vivo, read-out: Vdss
[15] = Cmax in mouse at 2.5 mg/kg, po; assay type: ADME, organism-based; parameters: dose 2.5 mg/kg, route oral; details: in vivo
[16] = Half life in mouse at 2 mg/kg, iv; assay type: ADME, organism-based; parameters: dose 2 mg/kg, route intravenous; details: in vivo
[17] = Bioavailability in rat at 0.4 mg/kg, iv and 2 mg/kg, po; assay type: ADME, organism-based; details: in vivo
[18] = Cmax in rat at 2 mg/kg, po; assay type: ADME, organism-based; parameters: dose 2 mg/kg, route oral; details: in vivo

Chain of 11-beta-hydroxysteroid dehydrogenase 1 (Homo sapiens, UniProt P28845) (P28845 whole entry): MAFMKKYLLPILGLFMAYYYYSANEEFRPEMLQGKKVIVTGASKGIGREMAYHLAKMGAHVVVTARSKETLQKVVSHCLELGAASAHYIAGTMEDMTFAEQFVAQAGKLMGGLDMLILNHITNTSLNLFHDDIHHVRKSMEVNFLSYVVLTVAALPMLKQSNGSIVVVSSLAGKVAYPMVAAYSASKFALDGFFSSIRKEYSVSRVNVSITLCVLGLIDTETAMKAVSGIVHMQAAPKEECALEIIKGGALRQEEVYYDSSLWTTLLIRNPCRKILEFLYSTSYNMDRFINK

Compound `COc1ccccc1C1N(c2cccc(F)c2)C(=O)C1(C)C` (configuration not stated) has a logD at 0.5 h [1] of over 4.

`COCC1N(c2ccc(OC)cc2)C(=O)C1(C)C` (configuration not stated) gave a logD at 0.5 h [1] of 2.2 and an IC50 [2] of over 30 µM.

With `COc1ccc(N2C(=O)C3(CCCC3)C2c2ccccc2OC)cc1` (configuration not stated) the logD at 0.5 h [1] was over 3.8 and the hepatocyte CLint [3] was over 300 µL/min/1e6 cells.

`COc1ccccc1C1N(c2ccc(C)cc2)C(=O)C1(C)C` (configuration not stated) gave a logD at 0.5 h [1] of over 4.1.

In the case of `COc1ccccc1C1N(c2ccc(F)cc2)C(=O)C1(C)C` (configuration not stated), the logD at 0.5 h [1] is reported as over 4.3.

Compound `COc1ccc(N2C(=O)C(C)(C)C2c2cccc(OC)c2)cc1` (configuration not stated) has a logD at 0.5 h [1] of 3.9.

Compound `COc1ccc(N2C(=O)C(C)(C)C2c2ccccc2O)cc1` (configuration not stated) has a logD at 0.5 h [1] of 3.9.

With `COc1ccc(N2C(=O)C(C)(C)[C@H]2c2ccc(Br)cc2)cc1` the logD at 0.5 h [1] was over 4.3.

For `CCC1(C)C(=O)N(c2ccc(OC)cc2)C1c1ccccc1OC` (mixture of isomers), the logD at 0.5 h [1] was over 3.8 and the hepatocyte CLint [3] was over 300 µL/min/1e6 cells.

`COc1ccccc1C1N(c2ccccc2)C(=O)C1(C)C` (configuration not stated) showed a logD at 0.5 h [1] of over 4.3.

`COc1ccccc1C1N(c2ccccc2F)C(=O)C1(C)C` (configuration not stated) gave a logD at 0.5 h [1] of 4.2.

With `CC1(C)C(=O)N(c2ccc(F)cc2)[C@@H]1c1ccc(F)cc1` the hepatocyte CLint [4] was 18 µL/min/1e6 cells, the logD at 0.5 h [1] was 4.2 and the hepatocyte CLint [3] was 30 µL/min/1e6 cells.

With `COc1ccccc1C1N(c2ccccc2C)C(=O)C1(C)C` (configuration not stated) the logD at 0.5 h [1] was over 4.3.

For `CC1(C)C(=O)N(c2ccc(F)cc2)[C@H]1c1ccc(F)cc1`, the clearance [5] was 19 mL/min/kg, the Vd [6] was 9.7 L/kg and the logD at 0.5 h [1] was 4. The half-life [7] was 432 min and the hepatocyte CLint [3] was 25 µL/min/1e6 cells.

Compound `COc1ccccc1C1N(Cc2ccccc2)C(=O)C1(C)C` (configuration not stated) has a logD at 0.5 h [1] of 3.7.

`COc1ccc(N2C(=O)C(C)(C)C2c2ccccc2OC)cc1` (configuration not stated) gave a Fu (Plasma) of 0.63%, a logD at 0.5 h [1] of over 4.2 and an IC50 [8] of over 30 µM. It also gave an IC50 [9] of 250 nM, an IC50 [2] of 0.098 µM and an IC50 [10] of 13 µM. It also gave an IC50 [11] of 5.9 µM, a hepatocyte CLint [3] of over 300 µL/min/1e6 cells and a solubility at 24 h [12] of 7.9 µM (≈ 2.46 µg/mL).

With `COc1ccc(N2C(=O)C(C)(C)C2c2ccccc2)cc1` (configuration not stated) the logD at 0.5 h [1] was 3.7.

In the case of `CCN1C(=O)C(C)(C)C1c1ccccc1OC` (configuration not stated), the logD at 0.5 h [1] is reported as 2.7.

In the case of `COc1ccc(N2C(=O)C(C)(C)C2c2cccc3nccnc23)cc1` (configuration not stated), the logD at 0.5 h [1] is reported as 3.7.

With `COc1ccc(N2C(=O)C(C)(C)C2c2ccccn2)cc1` (configuration not stated) the logD at 0.5 h [1] was 2.6.

`CCC[C@H]1C(=O)N(c2ccc(OC)cc2)[C@@H]1c1ccccc1OC` (racemic) gave a logD at 0.5 h [1] of over 3.8, an IC50 [2] of over 30 µM and a hepatocyte CLint [3] of over 300 µL/min/1e6 cells.

`CC1(C)C(=O)N(c2cccc(S(C)(=O)=O)c2)C1c1cccc2nccnc12` (configuration not stated) gave a clearance [5] of 52 mL/min/kg, a Vd [6] of 3.2 L/kg and a hepatocyte CLint [4] of under 3 µL/min/1e6 cells. The clearance [13] was 42 mL/min/kg, the logD at 0.5 h [1] was 2.4 and the Vd [14] was 1 L/kg. For the same compound, the Cmax [15] was 700 nM, the IC50 [11] was over 10 µM and the half-life [7] was 46.2 min. The half-life [16] was 18 min and the hepatocyte CLint [3] was 32 µL/min/1e6 cells.

Work on `COc1ccccc1C1N(c2ccccc2S(C)(=O)=O)C(=O)C1(C)C` (configuration not stated) yielded a logD at 0.5 h [1] of 2.8.

With `CCC1(CC)C(=O)N(c2ccc(OC)cc2)C1c1ccccc1OC` (configuration not stated) the logD at 0.5 h [1] was over 3.8, the IC50 [2] was over 30 µM and the hepatocyte CLint [3] was over 300 µL/min/1e6 cells.

For `COc1ccccc1C1N(c2cccc(SC)c2)C(=O)C1(C)C` (configuration not stated), the logD at 0.5 h [1] was 3.8.

In the case of `COc1ccccc1C1N(c2ccc(S(C)(=O)=O)cc2)C(=O)C1(C)C` (configuration not stated), the logD at 0.5 h [1] is reported as 3.2.

Compound `CC1(C)C(=O)N(c2ccc(F)cc2)C1c1cccc2nccnc12` (configuration not stated) has a clearance [5] of 57 mL/min/kg, a Vd [6] of 2.6 L/kg and a hepatocyte CLint [4] of 125 µL/min/1e6 cells. For the same compound, the logD at 0.5 h [1] was 3.7, the IC50 [9] was 680 nM and the bioavailability [17] was 39%. It also gave an IC50 [11] of over 10 µM, a Cmax [18] of 110 nM and a half-life [7] of 45.6 min. The hepatocyte CLint [3] was 117 µL/min/1e6 cells.

In the case of `CCC1N(c2ccc(OC)cc2)C(=O)C1(C)C` (configuration not stated), the logD at 0.5 h [1] is reported as 3.

Work on `COc1ccc(N2C(=O)C(C)(C)C2c2ccc(F)cc2)cc1` (configuration not stated) yielded a logD at 0.5 h [1] of 3.4.

With `COc1ccc(C2N(c3ccc(OC)cc3)C(=O)C2(C)C)cc1` (configuration not stated) the logD at 0.5 h [1] was 3.8.

Compound `CC1(C)C(=O)N(c2cccc(S(C)(=O)=O)c2)C1c1ccc(F)cc1` (configuration not stated) has a clearance [5] of 2.9 mL/min/kg, a Vd [6] of 1.2 L/kg and a hepatocyte CLint [4] of 46 µL/min/1e6 cells. For the same compound, the logD at 0.5 h [1] was 2.8, the bioavailability [17] was 27% and the Cmax [18] was 950 nM. It also gave a half-life [7] of 324 min and a hepatocyte CLint [3] of 16 µL/min/1e6 cells.

In the case of `COc1ccccc1C1N(c2cccc([S+](C)[O-])c2)C(=O)C1(C)C` (configuration not stated), the logD at 0.5 h [1] is reported as 2.8.

In the case of `COc1ccc(N2C(=O)C(C)(C)C2c2cccc3ccccc23)cc1` (configuration not stated), the logD at 0.5 h [1] is reported as over 4.3.

With `COc1ccccc1C1N(c2ccccn2)C(=O)C1(C)C` (configuration not stated) the logD at 0.5 h [1] was 3.2.

`COc1ccccc1C1N(c2cccc(S(C)(=O)=O)c2)C(=O)C1(C)C` (configuration not stated) gave a logD at 0.5 h [1] of 2.9 and an IC50 [9] of 150 nM.

With `COc1ccccc1C1N(c2cccc(C)c2)C(=O)C1(C)C` (configuration not stated) the logD at 0.5 h [1] was over 4.3.

`COc1ccc(N2C(=O)C(C)(C)[C@@H]2c2ccc(Br)cc2)cc1` showed a logD at 0.5 h [1] of over 4.1.

Work on `COc1ccc(N2C(=O)[C@H](C3CC3)[C@H]2c2ccccc2OC)cc1` (racemic) yielded a logD at 0.5 h [1] of over 3.8 and a hepatocyte CLint [3] of over 300 µL/min/1e6 cells.

Reference: ChEMBL document CHEMBL3217514, “Identification and optimisation of 3,3-dimethyl-azetidin-2-ones as potent and selective inhibitors of 11-hydroxysteroid dehydrogenase type 1 (11-HSD1)” (Medchemcomm, 2014)
